Data on one compound can be found in ChEMBL document CHEMBL3832047, “DailyMed|setid=077bf6ff-afb8-4cb7-9faa-fbb6fd9f037f | YAZ - drospirenone and ethinyl estradiol|Physicians Total Care, Inc”.

The structures appear in SMILES notation.

Series [1] is described as follows: (§1) Evaluation pharmacokinetic parameters for Drosporine following multiple co-administration of Drosporine tablets and 0.02 mg ethinyl estradiol to 23 healthy females. The format is ADME, organism-based. The arrangement: dose 3 mg, route oral. Conditions: human, in vivo, dosed compound id 30, dosed compound name DROSPIRENONE, gender female, regimen every 24h, study dosing duration 21 days, tissue Serum.

A further series relates to Homo sapiens. The description is as §1. Conditions: in vivo, po, dosed compound id 30, dosed compound name DROSPIRENONE, gender female, regimen every 24h, study dosing duration 21 days, tissue Serum. The format is ADME, organism-based. Also on record: dose 3 mg, route oral.

For `C[C@]12CCC(=O)C=C1[C@@H]1C[C@@H]1[C@H]1[C@@H]3[C@@H]4C[C@@H]4[C@@]4(CCC(=O)O4)[C@@]3(C)CC[C@@H]12` [DROSPIRENONE], the Cmax – broadly, the highest concentration seen after dosing – in series [1] (po, sampling time1 1 day) came to 38.4 ng/mL; in the series with Homo sapiens (sampling time1 21 day), 70.3 ng/mL. Also, the Tmax (as a rule, the time from dosing to the highest level) in series [1] (dose 3 mg, route oral, sampling time1 1 day) was in the range of 1 to 2 h. In addition, the half-life – broadly, how long it takes for the measured level to halve – in series [1] (dose 3 mg, route oral, sampling time1 21 day) is 30.8 h. For the same compound, the “AUC(0-24)” value is 268 ng·h/mL with Homo sapiens (sampling time1 1 day) and 763 ng·h/mL in the series on Homo sapiens (sampling time1 21 day).
